Assay results from patent US20260070929A1, “METHODS AND COMPOSITIONS FOR MODULATING KRAS(G12D)” (Ranok Therapeutics (Hangzhou) Co. LTD., priority 2022, published 2026).
Read-outs that look alike come from different tables or passages of the source.

Columns and labels:
KRAS(G12D)/SOS1 = target: T1, KRAS(G12D)/SOS1 (Homo sapiens, UniProt P01116, G12D); experiment: KRAS(G12D)/SOS1 homogeneous time-resolved fluorescence (HTRF) assay; format: binding; details: absence of GTP; 4° C., 3 hr
T1 construct: purchased Cisbio 63ADK000CB17PEH
T1 sequence (P01116 1-188 isoform P01116-2 G12D): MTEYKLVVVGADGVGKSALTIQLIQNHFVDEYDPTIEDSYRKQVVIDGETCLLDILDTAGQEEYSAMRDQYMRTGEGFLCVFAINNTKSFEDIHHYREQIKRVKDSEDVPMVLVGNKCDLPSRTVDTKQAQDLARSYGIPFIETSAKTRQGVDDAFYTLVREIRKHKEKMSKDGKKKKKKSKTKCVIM
Summary of the method: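 Disruption of the KRAS(G12D)/SOS1 pairing, in the absence of GTP, was read by time-resolved FRET after a 3 hr sealed incubation at 4 °C. Test compounds spanned 20 µM down to 1.02 nM in 3-fold steps. IC50 values correspond to half-maximal inhibition.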

[1] = test system: AGS gastric carcinoma cells [heterozygous G12D]; experiment: Cancer cell line proliferation (CellTiter-Glo), AGS; format: cell-based; details: 72 hr treatment, read-out: AGS CTG (EC50)
Summary of the method: (§1)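 First, plate 4,000 cells per well and incubate 72 hr (37° C., 5% CO2). Next, add compound from a 3-fold dilution series spanning 20 μM to 1.02 nM, keeping DMSO at 0.5%. Then incubate another 72 hr, add CellTiter-Glo, and derive EC50.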

[2] = test system: A-427 lung carcinoma cells [heterozygous G12D]; experiment: Cancer cell line proliferation (CellTiter-Glo), A-427; format: cell-based; details: A-427 cells, 72 hr treatment, read-out: A427 CTG (EC50)
Summary of the method: as §1

[3] = test system: ASPC1 pancreatic adenocarcinoma cells [homozygous G12D]; experiment: Cancer cell line proliferation (CellTiter-Glo), ASPC1; format: cell-based; details: 72 hr treatment, read-out: ASPC-1 CTG (EC50)
Summary of the method: as §1

[4] = test system: SW1990 pancreatic adenocarcinoma cells [homozygous G12D]; experiment: Cancer cell line proliferation (CellTiter-Glo), SW1990; format: cell-based; details: Homo sapiens, 72 hr treatment, read-out: SW1990 CTG (EC50)
Summary of the method: as §1

## C#Cc1cccc2cc(O)cc(-c3ncc4c(N5CC6CCC(C5)N6C(C)=O)nc(OCC5(CN6CCN(CC7CCN(Cc8ccc(-n9c(C(=O)NC(C)C(F)(F)F)nnc9-c9cc(C(C)C)c(O)cc9O)cc8)CC7)CC6)CC5)nc4c3F)c12 (stereo not shown) [Compound 150]
KRAS(G12D)/SOS1
  IC50: 100 to 1000 nM
[1]; Homo sapiens
  EC50: < 100 nM
[2]; Homo sapiens
  EC50: < 100 nM
[3]; Homo sapiens, ASPC1, 72 h
  EC50: 100 to 1000 nM
[4]
  EC50: < 100 nM

## C#Cc1cccc2cc(O)cc(-c3ncc4c(N5CC6CCC(C5)N6C(C)=O)nc(OCC5(CN6CCN(CC7CCN(Cc8ccc9c(c8)CN(C(=O)c8cc(C(C)C)c(O)cc8O)C9)CC7)CC6)CC5)nc4c3F)c12 [Compound 151]
KRAS(G12D)/SOS1
  IC50: < 100 nM
[1]; Homo sapiens
  EC50: 100 to 1000 nM
[2]; Homo sapiens
  EC50: 100 to 1000 nM
[3]; Homo sapiens, ASPC1, 72 h
  EC50: 100 to 1000 nM
[4]
  EC50: 100 to 1000 nM

## C#Cc1cccc2cc(O)cc(-c3ncc4c(N5CC6CCC(C5)N6)nc(OCC5(CN6CCN(CC7CCN(Cc8ccc9c(c8)CN(C(=O)c8cc(C(C)C)c(O)cc8OC)C9)CC7)CC6)CC5)nc4c3F)c12 [Compound 152]
KRAS(G12D)/SOS1
  IC50: < 100 nM
[1]; Homo sapiens
  EC50: < 100 nM
[2]; Homo sapiens
  EC50: 100 to 1000 nM
[3]; Homo sapiens, ASPC1, 72 h
  EC50: 100 to 1000 nM
[4]
  EC50: < 100 nM

## C#Cc1c(F)ccc2cc(O)cc(-c3ncc4c(N5CC6CCC(C5)N6)nc(OCC5(CN6CCN(CC7CCN(Cc8ccc(-n9c(C(=O)NC(C)C(F)(F)F)nnc9-c9cc(C(C)C)c(O)cc9O)cc8)CC7)CC6)CC5)nc4c3F)c12 (stereo not shown) [Compound 153]
KRAS(G12D)/SOS1
  IC50: < 100 nM
[1]; Homo sapiens
  EC50: < 100 nM
[2]; Homo sapiens
  EC50: < 100 nM
[3]; Homo sapiens, ASPC1, 72 h
  EC50: < 100 nM
[4]
  EC50: < 100 nM

## C#Cc1c(F)ccc2cc(O)cc(-c3ncc4c(N5CC6CCC(C5)N6)nc(OCC5(CN6CCN(CC7CCN(Cc8ccc(-n9c(C(=O)NCC(F)(F)F)nnc9-c9cc(C(C)C)c(O)cc9O)cc8)CC7)CC6)CC5)nc4c3F)c12 [Compound 154]
KRAS(G12D)/SOS1
  IC50: < 100 nM
[1]; Homo sapiens
  EC50: < 100 nM
[2]; Homo sapiens
  EC50: < 100 nM
[3]; Homo sapiens, ASPC1, 72 h
  EC50: < 100 nM
[4]
  EC50: < 100 nM

## C#Cc1cccc2cc(O)cc(-c3ncc4c(N5CC6CCC(C5)N6)nc(OCC5(CN6CCN(Cc7ccc(-n8c(C(=O)NC(C)C(F)(F)F)nnc8-c8cc(C(C)C)c(O)cc8O)cc7)CC6)CC5)nc4c3F)c12 (stereo not shown) [Compound 155]
KRAS(G12D)/SOS1
  IC50: < 100 nM
[1]; Homo sapiens
  EC50: 100 to 1000 nM
[2]; Homo sapiens
  EC50: 100 to 1000 nM
[3]; Homo sapiens, ASPC1, 72 h
  EC50: 100 to 1000 nM
[4]
  EC50: 100 to 1000 nM

## C#Cc1c(F)ccc2cc(O)cc(-c3nc(OC)c4c(N5CC6CCC(C5)N6)nc(OCC5(CN6CCN(CC7CCN(Cc8ccc9c(c8)CN(C(=O)c8cc(C(C)C)c(O)cc8O)C9)CC7)CC6)CC5)nc4c3F)c12 [Compound 156]
KRAS(G12D)/SOS1
  IC50: < 100 nM
[1]; Homo sapiens
  EC50: < 100 nM
[2]; Homo sapiens
  EC50: 100 to 1000 nM
[3]; Homo sapiens, ASPC1, 72 h
  EC50: < 100 nM
[4]
  EC50: < 100 nM

## C#Cc1cccc2cc(O)cc(-c3ncc4c(N5CC6CCC(C5)N6)nc(OCC5(CN6CCN(C(=O)C7CCN(Cc8ccc9c(c8)CN(C(=O)c8cc(C(C)C)c(O)cc8O)C9)CC7)CC6)CC5)nc4c3F)c12 [Compound 157]
KRAS(G12D)/SOS1
  IC50: < 100 nM
[1]; Homo sapiens
  EC50: < 100 nM
[2]; Homo sapiens
  EC50: 100 to 1000 nM
[3]; Homo sapiens, ASPC1, 72 h
  EC50: 100 to 1000 nM
[4]
  EC50: 100 to 1000 nM

## C#Cc1c(F)ccc2cc(O)cc(-c3nc(OC)c4c(N5CC6CCC(C5)N6)nc(OCC5(CN6CCN(CC7CCN(Cc8ccc(-n9c(C(=O)NC(C)C(F)(F)F)nnc9-c9cc(C(C)C)c(O)cc9O)cc8)CC7)CC6)CC5)nc4c3F)c12 (stereo not shown) [Compound 158]
KRAS(G12D)/SOS1
  IC50: < 100 nM
[1]; Homo sapiens
  EC50: < 100 nM
[2]; Homo sapiens
  EC50: < 100 nM
[3]; Homo sapiens, ASPC1, 72 h
  EC50: < 100 nM
[4]
  EC50: < 100 nM

## CC(C)c1cc(C(=O)N2Cc3ccc(CN4CCC(CN5CCN(CC6(COc7nc(N8CC9CCC(C8)N9)c8cnc(-c9cc(O)cc%10ccccc9%10)c(F)c8n7)CC6)CC5)CC4)cc3C2)c(O)cc1O [Compound 159]
KRAS(G12D)/SOS1
  IC50: < 100 nM
[1]; Homo sapiens
  EC50: 100 to 1000 nM
[2]; Homo sapiens
  EC50: 100 to 1000 nM
[3]; Homo sapiens, ASPC1, 72 h
  EC50: 100 to 1000 nM
[4]
  EC50: 100 to 1000 nM

## C#Cc1c(F)ccc2cc(O)cc(-c3ncc4c(N5CC6CCC(C5)N6)nc(CCC5(CN6CCN(C7CCN(Cc8ccc9c(c8)CN(C(=O)c8cc(C(C)C)c(O)cc8O)C9)CC7)CC6)CC5)nc4c3F)c12 [Compound 161]
KRAS(G12D)/SOS1
  IC50: < 100 nM
[1]; Homo sapiens
  EC50: < 100 nM
[2]; Homo sapiens
  EC50: 100 to 1000 nM
[3]; Homo sapiens, ASPC1, 72 h
  EC50: 100 to 1000 nM
[4]
  EC50: < 100 nM

## C#Cc1c(F)ccc2cc(O)cc(-c3ncc4c(N5CC6CCC(C5)N6)nc(OCC5(CN6CCC(C7CCN(Cc8ccc(-n9c(C(=O)NC(C)C(F)(F)F)nnc9-c9cc(C(C)C)c(O)cc9O)cc8)CC7)CC6)CC5)nc4c3F)c12 (stereo not shown) [Compound 162]
KRAS(G12D)/SOS1
  IC50: < 100 nM
[1]; Homo sapiens
  EC50: < 100 nM
[2]; Homo sapiens
  EC50: < 100 nM
[3]; Homo sapiens, ASPC1, 72 h
  EC50: < 100 nM
[4]
  EC50: < 100 nM

## C#Cc1c(F)ccc2cc(O)cc(-c3ncc4c(N5CC6CCC(C5)N6)nc(OCC5(CN6CCC(C7CCN(Cc8ccc9c(c8)CN(C(=O)c8cc(C(C)C)c(O)cc8O)C9)CC7)CC6)CC5)nc4c3F)c12 [Compound 163]
KRAS(G12D)/SOS1
  IC50: < 100 nM
[1]; Homo sapiens
  EC50: < 100 nM
[2]; Homo sapiens
  EC50: 100 to 1000 nM
[3]; Homo sapiens, ASPC1, 72 h
  EC50: 100 to 1000 nM
[4]
  EC50: < 100 nM

## Cc1cccc2cccc(-c3ncc4c(N5CC6CCC(C5)N6)nc(OC[C@@H]5C[C@H](N6CCN(Cc7ccc8c(c7)CN(C(=O)c7cc(C(C)C)c(O)cc7O)C8)CC6)CN5C)nc4c3F)c12 [Example 1]
KRAS(G12D)/SOS1
  IC50: 100 to 1000 nM
[1]
  EC50: 100 to 1000 nM
[2]
  EC50: 100 to 1000 nM
[3]
  EC50: 100 to 1000 nM
[4]
  EC50: 100 to 1000 nM
